Results published in patent publication US20110318738A1, “IDENTIFICATION AND REGULATION OF A NOVEL DNA DEMETHYLASE SYSTEM” (University of Utah Research Foundation, priority 2008, published 2011).

Columns and labels:
[1] = tested on: apc^mcr zebrafish embryos; assay: Whole mount in situ hybridization in apc mutant embryos; conditions: for irbp (% of embryos): apc^sib 96%; for gadd45α expression (% of embryos) / aid expression (% of embryos): apc^wt + DMSO 94%; for gadd45α expression (% of embryos): apc^mcr + DMSO 9%; for aid expression (% of embryos): apc^mcr + DMSO 17%; for mbd4 expression (% of embryos): apc^wt + DMSO 95%, apc^mcr + DMSO 3%
[2] = tested on: apc^mcr zebrafish embryos; assay: Quantitative RT-PCR in apc mutant embryos after drug treatment; assay type: in vivo; conditions: for expression of aid, gadd45α and mbd4: all-trans retinoic acid 1 μM or NS-398 10 μM, FIG. 11A
Protocol: Quantitative RT-PCR primers for amplification of zebrafish rdh1l (Nadauld et al., 2005), human DHRS9 (Jette et al., 2004) 28S rRNA (Eisinger et al., 2006), and h18S rRNA (Delaunay et al., 2000) were described previously, and are (hereby incorporated by reference in its entirety into this application). A template-free negative control was included in each experiment.
(§1) RNA from embryos or human adenoma tissues was isolated using Trizol (Invitrogen). cDNA library was prepared using Superscript III kit (Invitrogen). RT-PCR was performed on a Roche light cycler.

[3] = tested on: HT29 and DLD1; assay: Quantitative RT-PCR for AID, MBD4 and GADD45α in RA responsive colon carcinoma cell lines; assay type: cell-based; conditions: human colon cancer cell lines, ATRA 5 μM each day for two days; FIG. 11C
[4] = tested on: apc mutants (72 hpf); assay: MeDIP-qPCR for various genes in apc mutants; assay type: in vivo, zebrafish; conditions: apc mutant embryos treated with RA; FIG. 11D
Protocol: (§2) Expression of genes are first normalized to 28S, and then to the control embryo mRNA/28S ratio, valued as 1. […] In panels A-C, expression of genes are normalized first to 28S (A-B) or 18S (C) and then to the control sample values as 1.
This procedure was described in Weber et al., 2007. Briefly, Dynabeads (conjugated with sheep anti-mouse secondary antibody, Invitrogen) were incubated with 10 μg of 5MeC antibody (Eurogentec) for 2 hrs, washed, and then incubated with 4 μg of sonicated DNA (300 bp-1000 bp fragments) overnight Immunoprecipitated DNA was amplified using for whole genome amplification kit (Sigma Aldrich). Following amplification, 2 μg of amplified DNA was labeled with Cy5, and 2 μg of input DNA was labeled with Cy3 (Bio labs). Samples were competitively hybridized to 244K oligonucleotide promoter arrays (Agilent Inc).

[5] = tested on: zebrafish embryos; assay: Whole mount in situ hybridization for neuronal markers in morpholino-injected embryos; assay type: in vivo; conditions: morpholino injected at single-cell stage, 24 hpf; for Sox-2: embryos showing positive staining for the marker: Control Mo 97%; for Neurogenin-1: embryos showing positive staining for the marker: Control Mo 100%
Protocol: Wild-type zebrafish (Tuebingen strain) were maintained in a 14 hr:10 hr light:dark cycle in a Z-Mod at 28.5° C. Embryos were injected at single-cell stage and then grown in a 28.5° C. incubator. Morpholinos were obtained from Gene-tools LLC Ltd. For these experiments, morpholino sequences were designed against the following:
Whole mount in situ hybridization was performed as described earlier in Rai et al., 2006 with digoxigenin (Roche) labeled probes against neurogenin-1 and sox-2.
To address whether AID/Apobec enzymes, Gadd45, or zebrafish Mbd4 have a role in the control of DNA methylation during normal zebrafish development, a subset of the enzyme family members were knocked down (by morpholino injection) and their impact on development was examined. Either AID, Gadd45α, or Mbd4 knockdown caused the loss of neurons at 24 hpf, shown by the absence of pro-neuronal markers such as neurogenin-1 or sox-2. […] As neurons form in mice lacking Mbd4 (or AID), zebrafish may rely more on these proteins for neurogenesis than do mice, or alternatively, neurogenesis in zebrafish may be more sensitive to misregulation of DNA methylation levels. […] The percentage listed depicts embryos showing positive staining for the marker indicated.

[6] = tested on: DLD1, SW480, and HT29 cells; assay: Quantitative PCR measuring DHRS9 (RDHL) expression in colon cancer cell lines; assay type: cell-based, human; conditions: pargyline 3 mM, FIG. 14B
[7] = tested on: wild type embryos; assay: Quantitative RT-PCR in RA deficiency models; assay type: in vivo, zebrafish; conditions: DEAB treated wild type embryos; FIG. 11B
Protocol: as §2, §1

[8] = apc^mcr embryos, Table 6, apc^mcr 0%
[9] = apc^mcr embryos, Table 6, apc^sib 100%, apc^mcr 0%

## Lsd1 mo: morpholino 5′-GGTCTGACTTCTTATTGGACAACAT-3′ (SEQ ID NO. 18) (all phosphorodiamidate morpholino (PMO))
[1]; [8]
  irbp (% of embryos): 8%
[1]; [9]
  fabp2 (% of embryos): 83%

## CC1=C(/C=C/C(C)=C/C=C/C(C)=C/C(=O)O)C(C)(C)CCC1 [ATRA, all-trans retinoic acid]
[2]; APC mutants, RA treatment, FIG. 12A
  Cebpβ expression: down regulated
[2]; apc mutants, RA treatment
  dnmt1 expression: did not restore
[2]; apc mutants
  expression of aid, gadd45α and mbd4: greatly reduced
[2]; apc^mcr mutant embryos, ATRA 1 μM, FIG. 12A
  expression of pou5f1: reduced the expression
[3]
  expression of the demethylase genes: suppressed expression
[4]
  DNA methylation on the panel of genes implicated in intestinal differentiation and proliferation: reversed the loss of DNA methylation
[1]; apc^mcr embryos, Table 4
  gadd45α expression (% of embryos): 91%
  aid expression (% of embryos): 85%
  mbd4 expression (% of embryos): 65%
[1]; apc^mcr embryos, Table 4, apc^wt + DMSO 97%, apc^mcr + DMSO 11%
  dnmt1 expression (% of embryos): 89%
[1]; apc^mcr mutant, rdh1l morphant or nls mutant zebrafish treated with RA
  expression of aldh1a2: decreased the expression

## AID Mo: morpholino against AID, 5′-GTTTTGTTTTCGCTTACCTGTCCAG-3′ (SEQ ID No. 1) (all phosphorodiamidate morpholino (PMO))
[5]
  Sox-2: embryos showing positive staining for the marker: 13% (n = 38)
  Neurogenin-1: embryos showing positive staining for the marker: 12% (n = 50)

## CC1=C(/C=C/C(C)=C/C=C/C(C)=C/C=O)C(C)(C)CCC1 [RAL]
[1]; apc^mcr embryos treated with exogenous RAL
  intestinal differentiation marked by fabp2 expression: partially restored
[1]; apc^mcr embryos, Table 5, apc^wt + Control Mo 99%, mutant + Control Mo 3%
  fabp2 (% of embryos): 59%

## Pitx2 Mo: morpholino 5′-TTTATCAAACTTACTCGGACTCTGG-3′ (SEQ ID NO. 15) (all phosphorodiamidate morpholino (PMO))
[1]; apc^mcr embryos, Table 5, apc^wt + Control Mo 96%, mutant + Control Mo 17%
  cyclinD1 (% of embryos): 90%
[1]; apc^mcr embryos, Table 5, apc^wt + Control Mo 97%, mutant + Control Mo 10%
  Pcna (% of embryos): 85%

## Corest mo: morpholino 5′-CCTTCTCTAACATTGCGGGCATCTT-3′ (SEQ ID NO. 19) (all phosphorodiamidate morpholino (PMO))
[1]; [8]
  irbp (% of embryos): 11%
[1]; [9]
  fabp2 (% of embryos): 79%

## Groucho2 mo: morpholino 5′-GCCCTGTGGATACATCTTGAAATGT-3′ (SEQ ID NO. 17) (all phosphorodiamidate morpholino (PMO))
[1]; [8]
  irbp (% of embryos): 5%
[1]; [9]
  fabp2 (% of embryos): 95%
  rdh1l (% of embryos): 83%
  trypsin (% of embryos): 86%

## C#CCN(C)Cc1ccccc1 [pargyline]
[6]
  DHRS9 expression: upregulated
[2]; apc^mcr zebrafish embryos, pargyline 3 mM, FIG. 15A
  expression of rdh1l: rescued expression
[1]; apc^mcr zebrafish embryos, pargyline 3 mM
  expression of fabp2: rescued expression

## Pou5f1 Mo: morpholino 5′-CGCTCTCTCCGTCATCTTTCCGCTA-3′ (SEQ ID NO. 14) (all phosphorodiamidate morpholino (PMO))
[1]; apc^mcr embryos, Table 4
  gadd45α expression (% of embryos): 83%
  aid expression (% of embryos): 81%
  mbd4 expression (% of embryos): 67%

## CCN(CC)c1ccc(C=O)cc1 [DEAB, 4-(diethylamino) benzaldehyde]
[7]
  expression of the demethylase genes: increased expression

## CS(=O)(=O)Nc1ccc([N+](=O)[O-])cc1OC1CCCCC1 [Cox-2 inh, NS-398]
[2]; apc mutants
  expression of aid, gadd45α and mbd4: little effect
[1]; apc^mcr embryos, Table 4
  gadd45α expression (% of embryos): 8%
  aid expression (% of embryos): 20%
  mbd4 expression (% of embryos): 9%%

## Gadd45α Mo: morpholino against Gadd45α, 5′-ATATAAAAACATACCTTTCCGTTGC-3′ (SEQ ID No. 4) (all phosphorodiamidate morpholino (PMO))
[5]
  Sox-2: embryos showing positive staining for the marker: 33% (n = 48)
  Neurogenin-1: embryos showing positive staining for the marker: 11% (n = 52)

## Mbd4 Mo: morpholino against zMbd4, 5′-AGAGAGAAACACACCTGCTCGCTGC-3′ (SEQ ID No. 8) (all phosphorodiamidate morpholino (PMO))
[5]
  Sox-2: embryos showing positive staining for the marker: 15% (n = 53)
  Neurogenin-1: embryos showing positive staining for the marker: 14% (n = 43)
